Reference: PMC12027278, “Study of Lysozyme Activity in Bird Egg Whites by Fluorescence Polarization Assay Using Chitooligosaccharide Tracer” (Foods, 2025)

Legend:
[1] = molecular target: T1, hen egg white lysozyme (HEWL); hen egg lysozyme (Sigma) (Gallus gallus, UniProt P00698); assay: fluorescence polarization, egg white; format: biochemical; conditions: 25 mM phosphate, 0.15 M NaCl, pH 7.4, 25 °C; tracer 3 nM; diluted egg white; labelled compound
T1 construct: gene LYZ; native mature enzyme, 129 residues, commercial (Sigma) for tracer 2; endogenous in diluted egg white for tracer 1

[2] = molecular target: T1, hen egg white lysozyme (HEWL); hen egg lysozyme (Sigma); assay: fluorescence polarization; format: biochemical; conditions: 25 mM phosphate, 0.15 M NaCl, pH 7.4, 25 °C; tracer 3 nM, HEWL 100 µg/mL, added after pre-incubation with non-reactive egg whites; labelled compound

T1 sequence (P00698 19-147): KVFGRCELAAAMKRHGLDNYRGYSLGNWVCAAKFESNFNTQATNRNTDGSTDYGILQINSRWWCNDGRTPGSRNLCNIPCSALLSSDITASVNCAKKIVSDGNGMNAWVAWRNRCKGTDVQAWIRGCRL

| SMILES | fluorescence polarization, egg white [1] | fluorescence polarization [2] |
| --- | --- | --- |
| CC(=O)N[C@H]1[C@H](OCCNC(=S)Nc2ccc3c(c2)C(=O)OC32c3ccc(O)cc3Oc3cc(O)ccc32)O[C@H](CO)[C@@H](O[C@@H]2O[C@H](CO)[C@@H](O[C@@H]3O[C@H](CO)[C@@H](O)[C@H](O)[C@H]3NC(C)=O)[C@H](O)[C@H]2NC(C)=O)[C@@H]1O [compound 1, tracer 1] | a rapid increase in the FP signal was observed, followed by a stable plateau (Figure 6b) | – |
| CC(=O)N[C@H]1[C@H](OCCNC(=S)Nc2ccc3c(c2)C(=O)OC32c3ccc(O)cc3Oc3cc(O)ccc32)O[C@H](CO)[C@@H](O[C@@H]2O[C@H](CO)[C@@H](O[C@@H]3O[C@H](CO)[C@@H](O[C@@H]4O[C@H](CO)[C@@H](O[C@@H]5O[C@H](CO)[C@@H](O)[C@H](O)[C@H]5NC(C)=O)[C@H](O)[C@H]4NC(C)=O)[C@H](O)[C@H]3NC(C)=O)[C@H](O)[C@H]2NC(C)=O)[C@@H]1O [compound 2, tracer 2] | – | A sharp increase in the FP signal followed by a decrease over time was observed |
